Experimental data as given in PubChem BioAssay AID330 (DTP/NCI, 2004).
Values joined by “and” are separate entries in the source; they are usually repeats but may differ in a detail not shown here. Identical values can stand only once. Toxic doses and inconclusive results are not listed. Rule for the calls: active = survival T/C of 150% or more; inactive = T/C below 125% in these data.

Test system: P388 leukemia ip, CD2F1 mice, survival T/C
Assay: NCI In Vivo Anticancer Drug Screen. Data for tumor model P388 Leukemia (intraperitoneal) in CD2F1 (CDF1) mice
Conditions: endpoint: median survival time, higher = longer survival
Method in brief: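 Mice carrying the transplanted tumor received test compound or vehicle. Survival was recorded in each group, and the value is the treated-group measurement divided by that of the vehicle-treated control group.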

[1] = dose: 50.0 mg/kg/injection, schedule: Q01DX005 (ip), vehicle: Klucel (hydroxypropylcellulose) (HPC)
[2] = dose: 100.0 mg/kg/injection, schedule: Q01DX005 (ip), vehicle: Klucel (hydroxypropylcellulose) (HPC)
[3] = dose: 200.0 mg/kg/injection, schedule: Q01DX005 (ip), vehicle: Klucel (hydroxypropylcellulose) (HPC)
[4] = dose: 100.0 mg/kg/injection, schedule: Q04DX002 (ip), vehicle: saline with Tween-80
[5] = dose: 200.0 mg/kg/injection, schedule: Q04DX002 (ip), vehicle: saline with Tween-80
[6] = dose: 400.0 mg/kg/injection, schedule: Q04DX002 (ip), vehicle: saline with Tween-80
[7] = dose: 50.0 mg/kg/injection, schedule: Q01DX005 (ip), vehicle: saline with Tween-80
[8] = dose: 100.0 mg/kg/injection, schedule: Q01DX005 (ip), vehicle: saline with Tween-80
[9] = dose: 200.0 mg/kg/injection, schedule: Q01DX005 (ip), vehicle: saline with Tween-80
[10] = dose: 100.0 mg/kg/injection, schedule: Q04DX003 (ip), vehicle: saline with Tween-80
[11] = dose: 200.0 mg/kg/injection, schedule: Q04DX003 (ip), vehicle: saline with Tween-80
[12] = dose: 400.0 mg/kg/injection, schedule: Q04DX003 (ip), vehicle: saline with Tween-80
[13] = dose: 100.0 mg/kg/injection, schedule: Q01DX009 (ip), vehicle: saline with Tween-80
[14] = dose: 200.0 mg/kg/injection, schedule: Q01DX009 (ip), vehicle: saline with Tween-80
[15] = dose: 400.0 mg/kg/injection, schedule: Q01DX009 (ip), vehicle: saline with Tween-80
[16] = dose: 100.0 mg/kg/injection, schedule: Q01DX001 (ip), vehicle: Klucel (hydroxypropylcellulose) (HPC)
[17] = dose: 200.0 mg/kg/injection, schedule: Q01DX001 (ip), vehicle: Klucel (hydroxypropylcellulose) (HPC)
[18] = dose: 400.0 mg/kg/injection, schedule: Q01DX001 (ip), vehicle: Klucel (hydroxypropylcellulose) (HPC)

Measured: T/C

COC(=O)C(C)NC(=O)C(C)NC(=O)C(C)NC(C)=O (centres undefined)
inactive: [1] 102 % of control | [2] 94 % of control | [3] 100 % of control

COc1ccc(CN2CCCNCC2)cc1
inactive: dose: 12.5 mg/kg/injection, schedule: Q01DX009 (ip), vehicle: water 93 % of control | dose: 25.0 mg/kg/injection, schedule: Q01DX009 (ip), vehicle: water 100 % of control | dose: 50.0 mg/kg/injection, schedule: Q01DX009 (ip), vehicle: water 102 % of control | dose: 100.0 mg/kg/injection, schedule: Q01DX009 (ip), vehicle: water 93 % of control

C/C(=N\NC(=S)N1CCN(C)CC1)c1ccccn1
inactive: dose: 25.0 mg/kg/injection, schedule: Q04DX003 (ip), vehicle: saline 104 % of control | dose: 50.0 mg/kg/injection, schedule: Q04DX003 (ip), vehicle: saline 107 % of control | dose: 100.0 mg/kg/injection, schedule: Q04DX003 (ip), vehicle: saline 101 % of control

N#Cc1c(=O)[nH]nc2c3ccccc3c3ccccc3c12
inactive: [4] 92 % of control | [5] 95 % of control | [6] 96 % of control

COc1c(CC(C)O)c2c3c(CC(C)O)c(OC)c(=O)c4cc(O)c5c(c6c(c(O)cc(c1=O)c26)OCO5)c43 (centres undefined)
inactive: dose: 25.0 mg/kg/injection, schedule: Q04DX002 (ip), vehicle: saline with Tween-80 101 % of control | dose: 50.0 mg/kg/injection, schedule: Q04DX002 (ip), vehicle: saline with Tween-80 109 % of control | [4] 101 % of control | [5] 115 % of control | [6] 115 % of control

CC(=O)N([Si](C)(C)C)[Si](C)(C)C
inactive: dose: 6.25 mg/kg/injection, schedule: Q01DX009 (ip), vehicle: saline 88 % of control and 96 % of control | dose: 12.5 mg/kg/injection, schedule: Q01DX009 (ip), vehicle: saline 100 % of control and 109 % of control and 86 % of control | dose: 25.0 mg/kg/injection, schedule: Q01DX009 (ip), vehicle: saline 101 % of control and 86 % of control and 93 % of control | dose: 200.0 mg/kg/injection, schedule: Q01DX009 (ip), vehicle: saline 100 % of control

N#CCCN(CCC#N)Cc1c(O)ccc2ccccc12
inactive: [7] 104 % of control | [8] 114 % of control | [9] 117 % of control

C(=N\N=C1c2ccccc2-c2ccccc21)/c1ccc2ccc3cccc4ccc1c2c34
inactive: dose: 12.5 mg/kg/injection, schedule: Q01DX005 (ip), vehicle: saline with Tween-80 93 % of control | dose: 25.0 mg/kg/injection, schedule: Q01DX005 (ip), vehicle: saline with Tween-80 95 % of control | dose: 30.0 mg/kg/injection, schedule: Q01DX005 (ip), vehicle: saline with Tween-80 88 % of control | [7] 91 % of control | dose: 60.0 mg/kg/injection, schedule: Q01DX005 (ip), vehicle: saline with Tween-80 86 % of control | dose: 120.0 mg/kg/injection, schedule: Q01DX005 (ip), vehicle: saline with Tween-80 88 % of control | dose: 240.0 mg/kg/injection, schedule: Q01DX005 (ip), vehicle: saline with Tween-80 89 % of control

CCOC(=O)c1cn(C)c2c1C(O)=C(C(=O)OC)CC(=O)N2
inactive: [10] 95 % of control | [11] 100 % of control | [12] 117 % of control

CCOC(=Nc1ccc(OCC)cc1)SC(c1ccccc1)(c1ccccc1)c1ccccc1
inactive: [7] 104 % of control | [8] 98 % of control | [9] 91 % of control

Cc1ccc(C(C)(C)C[P+](C)(c2ccccc2)c2ccccc2)cc1
inactive: dose: 12.5 mg/kg/injection, schedule: Q01DX009 (ip), vehicle: Klucel (hydroxypropylcellulose) (HPC) 105 % of control | dose: 25.0 mg/kg/injection, schedule: Q01DX009 (ip), vehicle: Klucel (hydroxypropylcellulose) (HPC) 103 % of control

NC(=O)c1csc(-c2ccc(CO)o2)n1
inactive: [7] 95 % of control | [8] 86 % of control

CC(C)(C)SS(=O)(=O)C(C)(C)C
inactive: dose: 60.0 mg/kg/injection, schedule: Q01DX005 (ip), vehicle: Klucel (hydroxypropylcellulose) (HPC) 103 % of control | dose: 120.0 mg/kg/injection, schedule: Q01DX005 (ip), vehicle: Klucel (hydroxypropylcellulose) (HPC) 106 % of control | dose: 240.0 mg/kg/injection, schedule: Q01DX005 (ip), vehicle: Klucel (hydroxypropylcellulose) (HPC) 105 % of control

CC(CN)OS(=O)(=O)O (centres undefined)
inactive: [10] 100 % of control | [11] 100 % of control | [12] 95 % of control

CSC1=NC=C(C#N)C2=NC(c3ccccc3)NN12 (centres undefined)
inactive: [7] 98 % of control | [8] 97 % of control | [9] 100 % of control

CCOC(=O)C(Cc1ccccc1[N+](=O)[O-])(NC(C)=O)C(=O)OCC
inactive: dose: 50.0 mg/kg/injection, schedule: Q01DX009 (ip), vehicle: saline with Tween-80 94 % of control | [13] 93 % of control | [14] 100 % of control | [15] 103 % of control

CCn1cc(C(=O)O)c(=O)c2ccc(C)[n+](CCSC(=N)N)c21
inactive: [4] 104 % of control | [5] 99 % of control | [6] 100 % of control

COc1ccc(Cc2cc3c(cc2OCC(=O)N2CCOCC2)OCO3)cc1
inactive: [1] 97 % of control | [2] 89 % of control | [3] 97 % of control

CN1CCC/C1=N\C(=Nc1ccccc1)N1CCCC1
inactive: dose: 6.25 mg/kg/injection, schedule: Q01DX005 (ip), vehicle: saline 105 % of control | dose: 12.5 mg/kg/injection, schedule: Q01DX005 (ip), vehicle: saline 102 % of control | dose: 25.0 mg/kg/injection, schedule: Q01DX005 (ip), vehicle: saline 103 % of control

CCN(CC)c1ccc(/C=N/Nc2cc(C)nc3ccc(C4CCCCC4)cc23)cc1
inactive: [7] 90 % of control | [8] 100 % of control | [9] 118 % of control

NC(Cc1ccc(O)cc1)C(=O)OC1CCCCC1 (centres undefined)
inactive: dose: 25.0 mg/kg/injection, schedule: Q04DX003 (ip), vehicle: saline with Tween-80 107 % of control | dose: 50.0 mg/kg/injection, schedule: Q04DX003 (ip), vehicle: saline with Tween-80 110 % of control | [10] 100 % of control | [11] 96 % of control | [12] 95 % of control

Cc1ccc(OP(=O)(Oc2ccc(C)cc2)Oc2ccc(C)cc2)cc1.Cc1ccc(OP(=O)(Oc2ccc(C)cc2)Oc2ccc(C)cc2)cc1.Cc1ccc(OP(=O)(Oc2ccc(C)cc2)Oc2ccc(C)cc2)cc1.Cc1ccc(OP(=O)(Oc2ccc(C)cc2)Oc2ccc(C)cc2)cc1.[Co+2].[O-][Cl+3]([O-])([O-])O
inactive: [16] 99 % of control | [17] 97 % of control | [18] 97 % of control

CCn1c(Cl)c(C=O)c2ccccc21
inactive: [16] 100 % of control | [17] 92 % of control | [18] 95 % of control

N[C@@]1(C(F)(F)F)N[C@](N)(C(F)(F)F)C(F)(F)C(F)(F)C1(F)F
inactive: dose: 6.25 mg/kg/injection, schedule: Q01DX005 (ip), vehicle: Klucel (hydroxypropylcellulose) (HPC) 102 % of control | dose: 12.5 mg/kg/injection, schedule: Q01DX005 (ip), vehicle: Klucel (hydroxypropylcellulose) (HPC) 95 % of control

O=C(c1ccccc1)C(C(c1ccccc1)N1CCOCC1)N1CCOCC1 (centres undefined)
inactive: [13] 94 % of control | [14] 94 % of control | [15] 94 % of control

Cc1[nH]c2ccc(N(C)C)cc2c(=O)c1CNCc1ccccc1
inactive: dose: 1.56 mg/kg/injection, schedule: Q01DX009 (ip), vehicle: saline with Tween-80 114 % of control | dose: 3.13 mg/kg/injection, schedule: Q01DX009 (ip), vehicle: saline with Tween-80 107 % of control | dose: 6.25 mg/kg/injection, schedule: Q01DX009 (ip), vehicle: saline with Tween-80 103 % of control and 96 % of control

Cc1cc(=O)n(-c2ccc([N+](=O)[O-])cc2)c(C)c1C(=O)O
inactive: [7] 98 % of control | [8] 103 % of control | [9] 106 % of control
